Experimental data taken from ChEMBL document CHEMBL1201862, “PubChem BioAssay data set” (2004).
Several values for one entry are separate records, joined by “and”; a condition that tells them apart may be missing. Identical values can stand only once.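 Each compound was tested at five concentrations against cells in 96-well plates for 48 hours. Abbreviation: GI50, concentration required for 50% inhibition of growth.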 Activity calls are given as the source filed them. Rule as the data show it: active = GI50 up to about 1.1 µM and inactive = higher.

Key:
Test in all cases: inhibition of tumour cell growth, NCI panel, 48 h
ACHN = test system: ACHN
BT-549 = test system: BT-549
CAKI-1 = test system: CAKI-1
DU-145 = test system: DU-145
HCC 2998 = test system: HCC 2998
HT-29 = test system: HT-29
Hs-578T = test system: Hs-578T
IGROV-1 = test system: IGROV-1
KM12 = test system: KM12
M14 = test system: M14
MCF7 = test system: MCF7
MDA-MB-435 = test system: MDA-MB-435
MDA-N = test system: MDA-N
Malme-3M = test system: Malme-3M
NCI-H226 = test system: NCI-H226
NCI-H23 = test system: NCI-H23
NCI-H522 = test system: NCI-H522
NCI/ADR-RES = test system: NCI/ADR-RES
OVCAR-3 = test system: OVCAR-3
OVCAR-8 = test system: OVCAR-8
RPMI-8226 = test system: RPMI-8226
RXF 393 = test system: RXF 393
SF-268 = test system: SF-268
SF-295 = test system: SF-295
SK-MEL-28 = test system: SK-MEL-28
SK-OV-3 = test system: SK-OV-3
SN12C = test system: SN12C
SNB-75 = test system: SNB-75
SW-620 = test system: SW-620
T47D = test system: T47D
TK-10 = test system: TK-10
UACC-257 = test system: UACC-257
786-0 = test system: 786-0
A498 = test system: A498
A549 = test system: A549
CCRF-CEM = test system: CCRF-CEM
COLO 205 = test system: COLO 205
EKVX = test system: EKVX
HCT-116 = test system: HCT-116
HL-60 = test system: HL-60
HOP-62 = test system: HOP-62
HOP-92 = test system: HOP-92
K562 = test system: K562
MDA-MB-231 = test system: MDA-MB-231
MOLT-4 = test system: MOLT-4
NCI-H460 = test system: NCI-H460
OVCAR-4 = test system: OVCAR-4
OVCAR-5 = test system: OVCAR-5
PC-3 = test system: PC-3
SF-539 = test system: SF-539
SK-MEL-5 = test system: SK-MEL-5
SNB-19 = test system: SNB-19
SR = test system: SR
U-251 = test system: U-251
UACC-62 = test system: UACC-62
UO-31 = test system: UO-31
HCT-15 = test system: HCT-15
LOX IMVI = test system: LOX IMVI
SK-MEL-2 = test system: SK-MEL-2

Measured: GI50

CC(=O)c1c(-c2ccc(Cl)cc2)c(C#N)c(=S)n(C2OC(CO)C(O)C(O)C2O)c1-c1ccccc1 (stereo not given)
inactive: ACHN 55.2 µM and 45.5 µM | BT-549 > 100 µM | CAKI-1 45.2 µM and > 89.1 µM | DU-145 > 100 µM and > 93.3 µM | HCC 2998 > 100 µM and > 83.8 µM | HT-29 > 100 µM and 52.1 µM | Hs-578T > 100 µM | IGROV-1 62.8 µM | KM12 > 100 µM and > 68.9 µM | M14 > 100 µM | MCF7 > 100 µM and > 71 µM | MDA-MB-435 77.6 µM | MDA-N 80.7 µM and 48.2 µM | Malme-3M > 100 µM | NCI-H226 61.4 µM | NCI-H23 > 100 µM | NCI-H522 > 100 µM and 53.8 µM | NCI/ADR-RES > 100 µM and 98.9 µM | OVCAR-3 > 80.4 µM and 64.9 µM | OVCAR-8 > 100 µM and > 57.3 µM | RPMI-8226 31.9 µM | RXF 393 83.4 µM and 75.5 µM | SF-268 89.3 µM and 61.5 µM | SF-295 > 100 µM and 70.6 µM | SK-MEL-28 82.2 µM | SK-OV-3 > 100 µM | SN12C > 100 µM and > 85.7 µM | SNB-75 14.7 µM | SW-620 59.6 µM | T47D > 82.6 µM | TK-10 > 100 µM | UACC-257 > 100 µM

CC(=O)NC1(NC(C)=O)C2CC(C1Cc1ccccc1)C(C)(C)C2C (stereo not given)
inactive: 786-0 > 100 µM | A498 > 100 µM | A549 > 100 µM | ACHN > 100 µM | BT-549 > 100 µM | CAKI-1 > 100 µM | CCRF-CEM > 100 µM | COLO 205 > 100 µM | DU-145 > 100 µM | EKVX > 100 µM | HCC 2998 > 100 µM | HCT-116 > 100 µM | HL-60 > 100 µM | HOP-62 > 100 µM | HOP-92 > 100 µM | HT-29 > 100 µM | Hs-578T > 100 µM | IGROV-1 > 100 µM | K562 > 100 µM | KM12 > 100 µM | M14 > 100 µM | MCF7 > 100 µM | MDA-MB-231 > 100 µM | MDA-MB-435 > 100 µM | MDA-N > 100 µM | MOLT-4 > 100 µM | Malme-3M > 100 µM | NCI-H226 > 100 µM | NCI-H23 > 100 µM | NCI-H460 > 100 µM | NCI-H522 > 100 µM | OVCAR-3 > 100 µM | OVCAR-4 > 100 µM | OVCAR-5 > 100 µM | OVCAR-8 > 100 µM | PC-3 > 100 µM | RXF 393 > 100 µM | SF-268 > 100 µM | SF-295 > 100 µM | SF-539 > 100 µM | SK-MEL-28 > 100 µM | SK-MEL-5 > 100 µM | SK-OV-3 > 100 µM | SN12C > 100 µM | SNB-19 > 100 µM | SNB-75 > 100 µM | SR > 100 µM | SW-620 > 100 µM | T47D > 100 µM | TK-10 > 100 µM | U-251 > 100 µM | UACC-257 > 100 µM | UACC-62 > 100 µM | UO-31 > 100 µM

COc1cc(/C=C2\CCC/C(=C\c3ccc(OC(=O)CCCCC4CCSS4)c(OC)c3)C2=O)ccc1OC(=O)CCCCC1CCSS1 (stereo not given)
> 100 µM: HCT-15
inactive: 786-0 > 100 µM | A498 > 100 µM | A549 > 100 µM | ACHN > 100 µM | BT-549 > 100 µM | CCRF-CEM 91.2 µM | COLO 205 > 100 µM | DU-145 > 100 µM | EKVX > 100 µM | HCT-116 > 100 µM | HL-60 > 100 µM | HOP-62 > 100 µM | HT-29 > 100 µM | Hs-578T > 100 µM | IGROV-1 > 100 µM | K562 > 100 µM | KM12 > 100 µM | LOX IMVI > 100 µM | M14 > 100 µM | MCF7 > 100 µM | MDA-MB-231 > 100 µM | MDA-MB-435 > 100 µM | MDA-N > 100 µM | MOLT-4 > 100 µM | Malme-3M > 100 µM | NCI-H226 > 100 µM | NCI-H23 > 100 µM | NCI-H460 > 100 µM | NCI-H522 > 100 µM | NCI/ADR-RES > 100 µM | OVCAR-3 > 100 µM | OVCAR-4 > 100 µM | OVCAR-5 > 100 µM | OVCAR-8 > 100 µM | PC-3 > 100 µM | RPMI-8226 > 100 µM | RXF 393 > 100 µM | SF-268 > 100 µM | SF-295 > 100 µM | SF-539 > 100 µM | SK-MEL-28 > 100 µM | SK-MEL-2 > 100 µM | SK-MEL-5 > 100 µM | SK-OV-3 > 100 µM | SN12C > 100 µM | SNB-19 > 100 µM | SNB-75 > 100 µM | SW-620 > 100 µM | TK-10 > 100 µM | U-251 > 100 µM | UACC-257 > 100 µM | UACC-62 > 100 µM | UO-31 > 100 µM
